Assay results published in patent publication US20180186796A1, “COMPOUNDS AND USES THEREOF” (LEAD DISCOVERY SIENA S.R.L., priority 2014, published 2018).
Values after ≈ are worked out from the molar mass of the structure shown. Where two headings read alike, the source gives them in different places.

How the values were obtained:
Recombinant human Src = target: T1, Recombinant human Src (Homo sapiens, UniProt P12931); assay: Enzymatic assay on isolated Src; assay type: biochemical
T1 construct: purchased Upstate (Lake Placid, N.Y.)
T1 sequence (P12931 whole entry): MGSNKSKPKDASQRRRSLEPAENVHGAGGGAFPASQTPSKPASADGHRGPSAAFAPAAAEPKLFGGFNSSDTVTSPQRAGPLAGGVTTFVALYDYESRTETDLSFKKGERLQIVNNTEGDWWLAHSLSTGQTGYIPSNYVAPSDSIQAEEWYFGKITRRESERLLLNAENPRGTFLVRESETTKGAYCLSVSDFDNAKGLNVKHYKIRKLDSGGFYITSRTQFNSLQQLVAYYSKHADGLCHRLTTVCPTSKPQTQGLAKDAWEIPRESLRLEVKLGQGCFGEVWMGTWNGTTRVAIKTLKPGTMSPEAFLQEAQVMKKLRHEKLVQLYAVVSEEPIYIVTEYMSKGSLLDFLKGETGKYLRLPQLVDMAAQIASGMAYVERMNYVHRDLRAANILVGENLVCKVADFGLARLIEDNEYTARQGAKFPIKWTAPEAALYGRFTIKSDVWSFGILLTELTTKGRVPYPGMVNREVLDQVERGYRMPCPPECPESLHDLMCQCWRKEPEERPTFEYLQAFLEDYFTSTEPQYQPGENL
Description: Recombinant human Src was purchased from Upstate (Lake Placid, N.Y.).

recombinant Fyn = recombinant Fyn (Homo sapiens, UniProt P06241); assay: Enzymatic assay on isolated Fyn kinase
recombinant Fyn, sequence (P06241 whole entry, looked up): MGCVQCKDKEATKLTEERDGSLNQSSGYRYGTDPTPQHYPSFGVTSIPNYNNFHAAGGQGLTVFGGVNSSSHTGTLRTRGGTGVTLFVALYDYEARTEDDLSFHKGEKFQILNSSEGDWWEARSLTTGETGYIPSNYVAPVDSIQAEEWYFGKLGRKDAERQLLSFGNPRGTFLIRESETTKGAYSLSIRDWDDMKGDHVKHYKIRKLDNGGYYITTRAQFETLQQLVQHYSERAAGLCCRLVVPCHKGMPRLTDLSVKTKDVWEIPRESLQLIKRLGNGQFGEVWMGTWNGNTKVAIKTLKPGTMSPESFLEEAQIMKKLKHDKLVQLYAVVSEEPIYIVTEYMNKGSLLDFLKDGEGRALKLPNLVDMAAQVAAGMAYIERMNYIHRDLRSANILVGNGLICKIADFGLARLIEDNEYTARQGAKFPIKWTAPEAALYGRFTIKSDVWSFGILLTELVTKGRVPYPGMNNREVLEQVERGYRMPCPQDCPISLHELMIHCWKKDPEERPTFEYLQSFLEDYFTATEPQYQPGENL
Protocol: Kinase assays were performed in presence of 200 μM ATP and 100 μM peptide substrate. All inhibition assays were conducted with 0.01 μg active kinase, 0.33 μmol [^γ32P]ATP, 60 mM HEPES-NaOH pH 7.5, 3 μM Na-orthovanadate, 1.2 mM DTT, 50 μg/ml PEG20.0000, 10 mM magnesium acetate, 0.004% NP40 and 10% DMSO in a final volume of 10 μL. Fyn and inhibitors were preincubated in ice for 5 min; after addition of the substrates the reaction was conducted at 30° C. for 10 min. The reaction was stopped by adding 5 μL of 3% phosphoric acid. Aliquots (10 μL) were then transferred into a P30 Filtermat (PerkinElmer), washed five times with 75 mM phosphoric acid and once with acetone for 5 minute. The filter was dried and transferred to a sealable plastic bag, and scintillation cocktail (4 mL) was added. Spotted reactions were read in a MicroBeta Liquid (Perkinelmer) scintillation counter. The ID50 values were obtained according to the following equation:
Ki values toward recombinant Fyn were calculated using the equation:
according to a competitive mechanism of inhibition toward ATP substrate, where [SATP] is the concentration of ATP. Curve fitting was performed with the program GraphPad Prism version 5.00.

[1] = Microsomal stability assay; settings: for Metabolic Stab.: percentage of unmodified parent drug, human liver microsomes 60 min; for Metabolic Stab. %: percentage of unmodified drug, Table 8
[2] = PAMPA, intestinal (GI) permeability; settings: for Papp / Papp at 5 h, 0.5 mM: PAMPA; for Papp: Table 6; for PAMPA GI (MR %): Membrane Retention; for Papp at 5 h, 0.5 mM: pH 7.4
Protocol: (§1) Donor solution (0.5 mM) was prepared by diluting 1 mM dimethylsulfoxide (DMSO) compound stock solution using phosphate buffer (pH 7.4, 0.025 M). […] Donor solution (150 μL) was added to each well of the filter plate. To each well of the acceptor plate were added 300 μL of solution (50% DMSO in phosphate buffer). All compounds were tested in three different plates on different days. The sandwich was incubated for 5 h at room temperature under gentle shaking. After the incubation time, the plates were separated, and samples were taken from both receiver and donor sides and analyzed using LC with UV detection at 280 nm.
(§2) Permeability (Papp) for PAMPA was calculated according to the following equation, obtained from Wohnsland and Faller^27 and Sugano et al.^28 equation with some modification in order to obtain permeability values in cm s^−1,
(§3) Drug concentration is estimated by using the peak area integration. Membrane retentions (%) were calculated according to the following equation:
(§4) where r is the ratio between drug concentration in the acceptor and equilibrium concentration, D, A, and Eq represented drug concentration in the donor, acceptor and equilibrium solution, respectively.
(§5) Donor solution of tested compounds (0.5 mM) was prepared by diluting 1 mM dimethylsulfoxide (DMSO) compound stock solution using phosphate buffer (pH 7.4, 25 mM). […] Donor solution (150 μL) was added to each well of the filter plate. To each well of the acceptor plate were added 300 μL of solution (50% DMSO in phosphate buffer). Compounds was tested in three different plates on different days. The sandwich was incubated for 5 h at room temperature under gentle shaking.
(§6) Permeability (Papp) for PAMPA was calculated according to the following equation, obtained from Wohnsland and Faller and Sugano et al.^27, 28.
(§7) Drug concentration is estimated by using the peak area integration. Membrane retention (%) was calculated according to the following equation:

Water solubility assay = settings: for H2O Solubility: Table 6; for solubility at 24 h / solubility thermodynamic at 24 h: water, 20 °C, thermodynamic from solid
PAMPA, BBB permeability = settings: for PAMPA BBB (MR %): Membrane Retention; for Papp at 5 h, 0.5 mM: PAMPA, pH 7.4
Protocol: as §1, §2, §3, §4, §5, §6, §7

[3] = mean of at least two experiments, read-out: Enzymatic Data (Ki, μM) c-Src
[4] = read-out: Enzymatic Data (Ki, μM) Fyn

Structure (SMILES)	Ki (recombinant Fyn)	Papp [2]	Ki (Recombinant human Src; [3])	other results
Fc1cccc(Nc2nc(SC3CCCC3)nc3c2cnn3CC(Cl)c2ccccc2)c1 (stereo not drawn) [Si170, 1-(2-Chloro-2-phenylethyl)-6-(cyclopentylthio)-N-(3-fluorophenyl)-1H-pyrazolo[3,4-d]pyrimidin-4-amine]	–	–	–	Ki (Recombinant human Src; read-out: Ki c-Src): ~0.1 µM
CC(=O)c1ccc(-c2nn(CC(C)c3ccccc3)c3ncnc(N)c23)cc1 (stereo not drawn) [drawing 206]	> 10 µM	–	–	–
ClC(Cn1ncc2c(NCCc3ccccc3)nc(SCCN3CCOCC3)nc21)c1ccccc1 (stereo not drawn)	> 100 µM	–	–	–
CC(Cn1ncc2c(Nc3cccc(O)c3)nc(SCCN3CCOCC3)nc21)c1ccccc1.Cl (stereo not drawn) [Si329, 3-{[6-[(2-Morpholin-4-ylethyl)thio]-1-(2-phenylpropyl)-1H-pyrazolo[3,4-d]pyrimidin-4-yl]amino}phenol hydrochloride]	–	6.81 10^−6 cm/sec	–	Metabolic Stab. [1]: 99%; H2O Solubility (Water solubility assay): 1 µg/mL
CC(Cn1ncc2c(Nc3ccccc3)nc(SCCN3CCOCC3)nc21)c1ccccc1 (stereo not drawn)	–	3.66 10^−6 cm/sec	1.44 µM	–
CSc1nc(NCCc2ccccc2)c2cnn(CC(Cl)c3ccccc3)c2n1 (stereo not drawn) [Si35, 1-(2-chloro-2-phenylethyl)-6-(methylthio)-N-phenethyl-1H-pyrazolo[3,4-d]pyrimidin-4-amine]	–	–	–	Metabolic Stab. % [1]: 96.2%; PAMPA GI (MR %) [2]: (33.0) %; Papp at 5 h, 0.5 mM [2]: 7.4 ×10⁻⁶ cm/s; solubility at 24 h (Water solubility assay): 0.166 µM (≈ 0.0704 µg/mL); solubility thermodynamic at 24 h (Water solubility assay): 0.07 µg/mL (≈ 0.165 µM); PAMPA BBB (MR %) (PAMPA, BBB permeability): (24.5) %; Papp at 5 h, 0.5 mM (PAMPA, BBB permeability): 6.17 ×10⁻⁶ cm/s
COc1ccc(-c2nn(CC(Cl)c3ccccc3)c3ncnc(N)c23)cc1 (stereo not drawn)	–	–	–	Ki (recombinant Fyn; [4]): 1.49 µM
CSc1nc(Nc2cccc(O)c2)c2cnn(CCc3ccccc3)c2n1	–	5.24 10^−6 cm/sec	0.62 µM	–
CCCNc1nc(SCCN2CCOCC2)nc2c1cnn2CC(Cl)c1ccccc1 (stereo not drawn) [Si109, 1-(2-chloro-2-phenylethyl)-6-((2-morpholinoethyl)thio)-N-propyl-1H-pyrazolo[3,4-d]pyrimidin-4-amine]	7.5 to 16 µM	–	–	–
CCSc1nc(Nc2cccc(O)c2)c2cnn(CC(C)c3ccccc3)c2n1 (stereo not drawn)	–	4.91 10^−6 cm/sec	0.11 µM	–
OCCNc1nc(NCc2ccccc2)c2cnn(/C=C/c3ccccc3)c2n1 [Si74, 2-(4-benzylamino-1-styryl-1H-pyrazolo[3,4-d]pyrimidin-6-ylamino)-ethanol]	–	–	–	Ki (recombinant Fyn; read-out: Ki Fyn): 1.15 µM
CCSc1nc(Nc2cccc(Cl)c2)c2cnn(CC(C)c3ccccc3)c2n1 (stereo not drawn)	–	3.81 10^−6 cm/sec	0.55 µM	–
CSc1nc(Nc2cccc(Br)c2)c2cnn(CCc3ccccc3)c2n1	–	3.26 10^−6 cm/sec	0.2 µM	–
Cl.Oc1cccc(Nc2nc(SCCN3CCOCC3)nc3c2cnn3CCc2ccccc2)c1 [Si332, 3-{[6-[(2-Morpholin-4-ylethyl)thio]-1-(2-phenylethyl)-1H-pyrazolo[3,4-d]pyrimidin-4-yl]amino}phenol hydrochloride]	–	6.38 10^−6 cm/sec	–	Metabolic Stab. [1]: 97%; H2O Solubility (Water solubility assay): 97 µg/mL; solubility value (Water solubility assay; aqueous): 97 µg/mL
CCCCSc1nc(Nc2cccc(O)c2)c2cnn(CC(Cl)c3ccccc3)c2n1 (stereo not drawn)	–	3.43 10^−6 cm/sec	0.13 µM	–
Fc1cccc(Nc2nc(SC3CCCC3)nc3c2cnn3CC(Cl)c2ccccc2)c1 (stereo not drawn) [drawing 191, reference compound]	> 100 µM	–	–	–
CCSc1nc(Nc2cccc(Br)c2)c2cnn(CC(C)c3ccccc3)c2n1 (stereo not drawn)	–	2.03 10^−6 cm/sec	0.1 µM	Ki (Recombinant human Src): ~0.1 µM
COC(Cn1nc(-c2ccccc2)c2c(N)nc(SC)nc21)c1ccccc1 (stereo not drawn)	> 10 µM	–	–	–
ClC(Cn1ncc2c(NCc3ccccc3)nc(Cc3ccccc3)nc21)c1ccccc1 (stereo not drawn) [Si164, N,6-dibenzyl-1-(2-chloro-2-phenylethyl)-1H-pyrazolo[3,4-d]pyrimidin-4-amine]	7.5 to 16 µM	–	–	–
CC(Cn1ncc2c(Nc3cccc(Cl)c3)nc(SCCN3CCOCC3)nc21)c1ccccc1 (stereo not drawn)	–	5.51 10^−6 cm/sec	0.97 µM	–
CSc1nc(Nc2cccc(Cl)c2)c2cnn(CC(Cl)c3ccccc3)c2n1 (stereo not drawn) [Si83, 1-(2-chloro-2-phenylethyl)-N-(3-chlorophenyl)-6-(methylthio)-1H-pyrazolo[3,4-d]pyrimidin-4-amine]	–	–	–	Metabolic Stab. % [1]: 91.1%; PAMPA GI (MR %) [2]: (69.9) %; Papp at 5 h, 0.5 mM [2]: 0.26 ×10⁻⁶ cm/s; solubility at 24 h (Water solubility assay): 0.295 µM (≈ 0.127 µg/mL); solubility thermodynamic at 24 h (Water solubility assay): 0.13 µg/mL (≈ 0.302 µM); PAMPA BBB (MR %) (PAMPA, BBB permeability): (39.6) %; Papp at 5 h, 0.5 mM (PAMPA, BBB permeability): 3.14 ×10⁻⁶ cm/s

Structure (SMILES)	Ki (recombinant Fyn)	Papp [2]	Ki (Recombinant human Src; [3])	other results
CC(Cn1nc(-c2ccc3[nH]ccc3c2)c2c(N)ncnc21)c1ccccc1 (stereo not drawn)	–	–	–	Ki (recombinant Fyn; [4]): 1.62 µM
Fc1ccc(CNc2nc(SCCN3CCOCC3)nc3c2cnn3CC(Cl)c2ccccc2)cc1 (stereo not drawn) [drawing 193]	–	–	–	Ki (recombinant Fyn; [4]): 15.5 µM
CSc1nc(Nc2cccc(F)c2)c2cnn(CCc3ccccc3)c2n1	–	9.33 10^−6 cm/sec	1.06 µM	–
CCCNc1nc(SCCN2CCOCC2)nc2c1cnn2CC(Cl)c1ccccc1 (stereo not drawn) [drawing 192]	–	–	–	Ki (recombinant Fyn; [4]): 8.15 µM
ClC(Cn1ncc2c(NCc3ccccc3)ncnc21)c1ccccc1 (stereo not drawn) [Si3]	–	–	–	Ki (recombinant Fyn; read-out: Ki Fyn): 3.5 µM
CCC(C)Sc1nc(NCCc2ccccc2)c2cnn(CC(Cl)c3ccccc3)c2n1 (stereo not drawn) [drawing 196]	> 100 µM	–	–	–
CC(C)Sc1nc(Nc2ccccc2)c2cnn(CC(Cl)c3ccccc3)c2n1 (stereo not drawn)	–	–	0.3 µM	–
CC(Cn1ncc2c(Nc3cccc(F)c3)nc(SCCN3CCOCC3)nc21)c1ccccc1 (stereo not drawn)	–	6.51 10^−6 cm/sec	2.34 µM	–
Clc1cccc(Nc2nc(SCCN3CCOCC3)nc3c2cnn3CCc2ccccc2)c1	–	3.50 10^−6 cm/sec	1.2 µM	–
CCCCSc1nc(Nc2cccc(Cl)c2)c2cnn(CC(Cl)c3ccccc3)c2n1 (stereo not drawn) [Si174]	–	–	–	Ki (recombinant Fyn; read-out: Ki Fyn): 1.4 µM
CSc1nc(NCCc2cccc(Cl)c2)c2cnn(/C=C/c3ccccc3)c2n1 [Si215, N-[2-(3-chlorophenyl)ethyl]-6-(methylthio)-1-[2-phenylvinyl]-1H-pyrazolo[3,4-d]pyrimidin-4-amine]	7.5 to 16 µM	–	–	–
CC(C)Sc1nc(Nc2cccc(Br)c2)c2cnn(CC(Cl)c3ccccc3)c2n1 (stereo not drawn)	–	–	0.62 µM	–
CCCCSc1nc(NCCc2ccccc2)c2cnn(CC(Cl)c3ccccc3)c2n1 (stereo not drawn)	> 100 µM	–	–	–
ClC(Cn1ncc2c(NCCc3ccccc3)nc(SC3CCCC3)nc21)c1ccccc1 (stereo not drawn)	> 100 µM	–	–	–
Fc1ccc(CNc2nc(SCCN3CCOCC3)nc3c2cnn3CC(Cl)c2ccccc2)cc1 (stereo not drawn) [Si180, 1-(2-chloro-2-phenylethyl)-N-(4-fluorobenzyl)-6-((2-morpholinoethyl)thio)-1H-pyrazolo[3,4-d]pyrimidin-4-amine]	7.5 to 16 µM	–	–	–
CSc1nc(NCCc2cccc(Cl)c2)c2cnn(/C=C/c3ccccc3)c2n1 [drawing 198]	–	–	–	Ki (recombinant Fyn; [4]): 16 µM
CC(Cn1nc(-c2ccc(Cl)cc2)c2c(N)ncnc21)c1ccccc1 (stereo not drawn) [Si337, 3-(4-Chlorophenyl)-1-(2-phenylpropyl)-1H-pyrazolo[3,4-d]pyrimidin-4-amine]	0.78 µM	–	–	decreased Fyn activity on substitution of chlorine by methyl in N1 side chain (recombinant Fyn; Si312 vs Si244, Si337 vs Si308, Si338 vs Si309): about 10 fold
CC(C)Sc1nc(Nc2cccc(F)c2)c2cnn(CC(Cl)c3ccccc3)c2n1 (stereo not drawn)	–	–	0.26 µM	–
CNc1nc(SC)nc2c1c(-c1ccccc1)nn2CCc1ccccc1	> 10 µM	–	–	–
CCC(C)Sc1nc(NCc2ccccc2)c2cnn(CC(Cl)c3ccccc3)c2n1 (stereo not drawn) [drawing 195]	> 100 µM	–	–	–
ClC(Cn1ncc2c(NCc3ccccc3)nc(Cc3ccccc3)nc21)c1ccccc1 (stereo not drawn) [drawing 200]	–	–	–	Ki (recombinant Fyn; [4]): 13 µM
